PMC12652113, “Fluorescent Albumin-Binding N-Propylbenzene Indolenine-Based Squaraines as Potential Candidates for Prostate Cancer Photodynamic Therapy Photosensitizers” (International Journal of Molecular Sciences, 2025)

What was measured:
[1] = Absorption and fluorescence photophysical characterization in organic solvents; assay type: physicochemical
Procedure: UV–Vis spectra were recorded on a Perkin-Elmer Lambda 25 spectrophotometer (Perkin-Elmer, Waltham, MA, USA) using Hellma Analytics quartz cuvettes (1 cm path length; Hellma Analytics, Müllheim, Germany). Spectral data are reported as maximum absorption wavelength (λmax, nm) and molar absorptivity (ε, M^−1·cm^−1). The latter was calculated according to the Lambert–Beer law from calibration plots of absorbance at λmax versus known dye concentrations.
Ultraviolet–visible absorption spectra were obtained at room temperature using a PerkinElmer Lambda 25 spectrophotometer, while fluorescence emission data were collected on a Horiba Jobin Yvon FluoroMax-4 fluorometer. Singlet oxygen and photostability tests and measurements were carried out on a BioRad xMark microplate reader (Bio-Rad, Hercules, CA, USA).
[…] All stock solutions were prepared at 0.67 mM concentration and stored in the dark at 4 °C until further use. For spectroscopic characterization, 1.0 µM stock solutions of the squaraine dyes in dimethyl sulfoxide were serially diluted into a series of solvents (chloroform, dimethyl sulfoxide, methanol, and phosphate buffer) to obtain at least five defined concentrations. The absorption spectra of these dilutions were recorded and used to calculate molar extinction coefficients according to the Beer–Lambert law. Additional working solutions at a 1.0 µM concentration were prepared in dimethyl sulfoxide and buffer, and 1.0% Triton X-100 was added where required to investigate dye aggregation.
The emission areas were integrated, and relative quantum yields were calculated following established methodologies, considering both absorbance at the excitation wavelength and the refractive index of the solvent. The calculation was performed using Equation (2), where “dye” and “ref” denote the squaraine dyes and the reference compound, respectively; I corresponds to the integrated emission intensity, A to the absorbance value at the excitation wavelength, and η to the refractive index of the solvent:(2) ΦF(dye)= ΦF(Std)Idye/Iref Aref/Adye ηdye2/ηref2

[2] = Photophysical properties in phosphate buffer in the absence of HSA; assay type: physicochemical; settings: phosphate buffer (pH 7.4)
Procedure: Squaraine dyes were dissolved in dimethyl sulfoxide, whereas zinc phthalocyanine required dimethylformamide as a solvent. All stock solutions were prepared at 0.67 mM concentration and stored in the dark at 4 °C until further use. For spectroscopic characterization, 1.0 µM stock solutions of the squaraine dyes in dimethyl sulfoxide were serially diluted into a series of solvents (chloroform, dimethyl sulfoxide, methanol, and phosphate buffer) to obtain at least five defined concentrations. The absorption spectra of these dilutions were recorded and used to calculate molar extinction coefficients according to the Beer–Lambert law. Additional working solutions at a 1.0 µM concentration were prepared in dimethyl sulfoxide and buffer, and 1.0% Triton X-100 was added where required to investigate dye aggregation.
(§1) For fluorometric experiments, the squaraine stock solutions were initially prepared in dimethylformamide and subsequently diluted with phosphate buffer for the protein–dye interaction analysis. Human serum albumin stock solution was then added to these mixtures, while keeping the dye concentration fixed at 2.0 µM and varying the protein concentration from 0 to 3.0 µM (0.0 to 3.0 µM for squaraines 5, 9, and 11, and from 0 to 6.0 µM for squaraine 13). Fluorescence intensities of the resulting solutions were recorded after 0, 3, and 24 h of incubation with the protein. The excitation wavelengths and excitation/emission slit widths used for the measurements were optimized for each dye, as listed in Table 6.

[3] = target: human serum albumin (HSA) (Homo sapiens, UniProt P02768); assay: Fluorometric squaraine-albumin binding titration
Sequence of human serum albumin (HSA) (P02768 25-609): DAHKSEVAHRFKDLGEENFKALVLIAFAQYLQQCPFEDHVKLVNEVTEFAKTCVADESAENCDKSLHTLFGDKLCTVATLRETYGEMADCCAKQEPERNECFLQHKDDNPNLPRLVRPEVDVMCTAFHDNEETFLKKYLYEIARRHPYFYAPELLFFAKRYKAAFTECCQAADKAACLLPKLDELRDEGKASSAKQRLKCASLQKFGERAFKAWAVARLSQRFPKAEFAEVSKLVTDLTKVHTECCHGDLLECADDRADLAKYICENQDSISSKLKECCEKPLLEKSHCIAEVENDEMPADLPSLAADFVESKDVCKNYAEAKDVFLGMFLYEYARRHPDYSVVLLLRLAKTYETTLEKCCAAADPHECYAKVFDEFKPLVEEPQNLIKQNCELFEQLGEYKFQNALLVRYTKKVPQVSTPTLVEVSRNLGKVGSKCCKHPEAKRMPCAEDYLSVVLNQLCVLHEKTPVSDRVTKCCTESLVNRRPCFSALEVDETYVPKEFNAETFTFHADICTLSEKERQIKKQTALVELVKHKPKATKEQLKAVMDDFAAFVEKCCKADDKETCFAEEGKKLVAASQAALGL
Procedure: as §1
The squaraine-albumin binding constants was calculated using the Benesi–Hildebrand equation (Equation (3)) based on the data obtained from the fluorescence experiments:(3) 1/Fx−F0=1/F∞−F0+1/Kb(F∞−F0)1/[HSA] where F0 is the fluorescence intensity of the squaraine in albumin-free buffer, Fx is the fluorescence observed after protein incubation at a specific concentration, F∞ is the fluorescence at the point of complete interaction, Kb is the binding constant, and [HSA] is the albumin concentration.
Quantification and detection limits (QL and DL, respectively) were determined from a calibration curve of maximum fluorescence intensity against protein concentration. The slope of this curve was then used to calculate the method’s sensitivity using Equations (4) and (5):(4) QL=10σ/S (5) DL=3σ/S where σ refers to the blank standard deviation and S (sensitivity) to the linear regression slope between the fluorescence intensity and albumin concentration.

[4] = phosphate buffer (pH 7.4), HSA presence

Structure (SMILES): CNC1=C(C=C2N(CCCc3ccccc3)c3ccccc3C2(C)C)C(=O)C1=CC1=[N+](CCCc2ccccc2)c2ccccc2C1(C)C.[I-] [Dye 11, 2-{3-[3,3-Dimethyl-1-(3-phenylpropyl)indolin-2-ylidenemethyl]-2-(methylamino)-4-oxocyclobut-2-en-1-ylidenemethyl}-3,3-dimethyl-1-(3-phenylpropyl)-indol-1-ium Iodide]
- Stokes shift (ΔS) ([1]; DMSO): 12 nm
- absorption maximum (λabs) ([1]; DMSO): 663 nm
- emission maximum (λem) ([1]; DMSO): 675 nm
- molar absorption coefficient (ε) ([1]; DMSO): 212000 M⁻¹ cm⁻¹
- fluorescence quantum yield (ΦF) ([1]; DMSO, relative to zinc phthalocyanine): 0.04
- Stokes shift (ΔS) ([1]; chloroform (CFM)): 13 nm
- absorption maximum (λabs) ([1]; chloroform (CFM)): 657 nm
- emission maximum (λem) ([1]; chloroform (CFM)): 670 nm
- fluorescence quantum yield (ΦF) ([1]; chloroform (CFM)): 0.10
- molar absorption coefficient (ε) ([1]; chloroform (CFM)): 202000 M⁻¹ cm⁻¹
- Stokes shift (ΔS) ([1]; methanol (MeOH)): 11 nm
- absorption maximum (λabs) ([1]; methanol (MeOH)): 650 nm
- emission maximum (λem) ([1]; methanol (MeOH)): 661 nm
- fluorescence quantum yield (ΦF) ([1]; methanol (MeOH)): 0.01
- molar absorption coefficient (ε) ([1]; methanol (MeOH)): 174000 M⁻¹ cm⁻¹
- absorption maximum (λabs) [2]: 655 nm
- fluorescence quantum yield (ΦF) [2]: 0.01
- molar absorption coefficient (ε) [2]: 71000 M⁻¹ cm⁻¹
- detection limit (DL) ([3]; HSA detection, DL=3σ/S): 420 nM
- quantification limit (QL) ([3]; HSA quantification, QL=10σ/S): 1401 nM
- fluorescence intensity without protein (F0) ([3]; dye 2.0 µM in phosphate buffer, no HSA): 1.00 a.u.
- fluorescence intensity at the highest protein concentration (F) ([3]; dye 2.0 µM, highest HSA concentration): 360.94 a.u.
- Stokes shift (ΔS) [3, 4]: 10 nm
- absorption maximum (λabs) [3, 4]: 652 nm
- emission maximum (λem) [3, 4]: 662 nm
- fluorescence quantum yield (ΦF) [3, 4]: 0.04
- incubation time for maximum interaction with HSA ([3]; read at 0 min, 3 h, 24 h): immediately upon addition to the protein solution
- sensitivity (S) ([3]; slope of fluorescence intensity vs HSA concentration): 119 µM
